Where a SMILES comes first, the peptide text is derived from it. Bridges are numbered along the chain shown (N, C = ends). Roman numbers before positions name the chains, in order. Where no end group is shown, it is not given here. [ ]: non-standard residue; d: D form. Ahx = NCCCCCC(=O)O
Experiments:
SCC15 cells = assay: MTT cytotoxic assay, SCC15; format: cell-based
Protocol: (§1) The cell lines CAL27 (ATCC CRL-2095) and SCC15 (ATCC CRL-1623) and the human immortalized nontumorigenic epithelial esophagus cell line Het-1A (ATCC CRL-2692) were purchased from ATCC (Manassas, VA). CAL27 cells were cultured in Dulbecco's Modified Eagle's Medium (DMEM; Gibco) with 10% of fetal bovine serum (FBS; Gibco). […] Het-1A cells were cultured in Bronchial Epithelial Cell Growth Medium (BEBM) with the additives obtained from Lonza/Clonetics Corporation as a kit (CC-3170), without antibiotics. All cells were maintained at 37°C in a 5% CO2 humidified atmosphere. For Het-1A cells, the culture flasks were precoated with fibronectin (0.01 mg/mL), bovine collagen type I (0.03 mg/mL), and bovine serum albumin (0.01 mg/mL) dissolved in a culture medium and incubated for 24 h before culturing the cells. Cell stocks were prepared and thawed periodically and used in early subcultures (not exceeding 5–10 population doublings). Cell viability was estimated by Trypan blue exclusion staining and was always higher than 97%. Growth curves for each cell line were done using 3-(4,5-dimethylthiazol-2-yl)-2,5-diphenyltetrazolium bromide (MTT). […] SCC15 cells having a mesenchymal- or epithelia-like phenotype were separated by their differential adherence to plastic dish and characterized for the expression of specific markers (see Section 2.7). Cytotoxic activity was determined using the MTT assay. Briefly, cells were seeded in 96-well plates with a confluence of approximately 70% (8 × 10^3 CAL27-cells/well, 4 × 10^3 SCC15-cells/well, and 1.6 × 10^4 Het-1A-cells/well). After cell adherence, the culture medium was removed and peptides at different concentrations (between 100 and 6.25 μg/mL) and times (between 1 and 24 h or 48, 72, and 96 h) were added to the wells in the absence of FBS. Staurosporine (STA) was used as positive control (CAL27: 0.4 μg/mL, SCC15 0.6 μg/mL, and Het-1A 0.6 μg/mL). Phase-contrast photomicrographs of the treated cells were taken (Nikon, Eclipse TS500). After treatment, the medium was replaced with 100 μL of complete culture media with 10% of MTT (5 mg/mL), and cells were incubated for 4–6 h. Finally, 100 μL of DMSO was added in order to lyse the cells and release and solubilize the Formazan crystals. After 10 min of incubation at 37°C, absorbance was measured at 550 nm. […] In some experiments and after treatments, remaining viable cells were treated again with peptides. Cells were first treated with peptides for 24 h and washed carefully and then fresh culture medium was added and cells were further incubated for 72 h.

Het-1A cells [1] = assay: MTT cytotoxic assay, Het-1A; format: cell-based, human
Protocol: as §1

CAL27 cells [2] = assay: MTT cytotoxic assay, CAL27; format: cell-based
Protocol: as §1

CAL27 cells [3] = assay: Apoptotic/necrotic assay (Annexin V-FITC/PI flow cytometry), CAL27; details: CAL27, 1 h treatment
Protocol: (§2) 1 × 10^5 CAL27 and Het-1A cells were treated with peptides for 1 h at 37°C and then labeled with Annexin V-FITC/PI, using the Dead Cell Apoptosis Kit for flow cytometry (Thermo Fisher Scientific). As a control for necrosis, the cells were treated for 5 min with 0.2% T-X100.

[4] = test system: normal human erythrocytes; format: cell-based
Protocol: 5 mL of heparinized peripheral blood was centrifuged at 1000 g for 7 min. The erythrocyte-rich fraction was resuspended in 10 mL of PBS and washed twice by centrifugation at 1000 g for 7 min. […] PBS was used as negative control, while Tween-20 (20% v/v) in PBS was used as positive controls. The 96-well plates were centrifuged, the supernatants were collected, and the absorbance was determined at 540 nm.

Het-1A cells [5] = assay: Apoptotic/necrotic assay (Annexin V-FITC/PI flow cytometry), Het-1A; details: 1 h treatment
Protocol: as §2

| concentration at which lysis of erythrocytes was shown [4] | Molecule | cytotoxicity (SCC15 cells; SCC15, 24 h, highest concentration tested 100 μg/mL (LfB 1.25 μM, LfcinB25 32 μM, LfcinB(20–25)4 22.25 μM), MTT) | cytotoxicity (Het-1A cells [1]; Het-1A, 24 h, highest concentration tested 100 μg/mL (LfB 1.25 μM, LfcinB25 32 μM, LfcinB(20–25)4 22.25 μM), MTT) | cytotoxicity (CAL27 cells [2]; CAL27, 24 h, highest concentration tested 100 μg/mL (LfB 1.25 μM, LfcinB25 32 μM, LfcinB(20–25)4 22.25 μM), MTT) | IC50 (SCC15 cells; 1 h) | IC50 (SCC15 cells; 3 h) | IC50 (SCC15 cells; 24 h) | IC50 (Het-1A cells [1]; 3 h) | IC50 (Het-1A cells [1]; 24 h) | cytotoxicity of a second addition of the peptide (in words) (CAL27 cells [2]) | IC50 (CAL27 cells [2]; 1 h) | IC50 (CAL27 cells [2]; 3 h) | IC50 (CAL27 cells [2]; 24 h) | apoptotic cell population (PI−/Annexin+), in words (CAL27 cells [3]) | apoptotic cell population (PI−/Annexin+), in words (Het-1A cells [5]) | IC50 (Het-1A cells [1]; 1 h) | cytotoxic effect (in words) (SCC15 cells; SCC15, 24 h, MTT, up to 100 μg/mL) | cytotoxic effect (in words) (Het-1A cells [1]; Het-1A, 24 h, MTT, at 40 μM) | cytotoxic effect (in words) (CAL27 cells [2]; CAL27, 24 h, MTT, up to 100 μg/mL) |
| --- | --- | --- | --- | --- | --- | --- | --- | --- | --- | --- | --- | --- | --- | --- | --- | --- | --- | --- | --- |
| – | CC[C@H](C)[C@H](NC(=O)[C@H](CO)NC(=O)[C@@H]1CCCN1C(=O)[C@H](C)NC(=O)CNC(=O)[C@H](CC(C)C)NC(=O)[C@H](CCCCN)NC(=O)[C@H](CCCCN)NC(=O)[C@H](CCSC)NC(=O)[C@H](CCCNC(=N)N)NC(=O)[C@H](Cc1c[nH]c2ccccc12)NC(=O)[C@H](CCC(N)=O)NC(=O)[C@H](Cc1c[nH]c2ccccc12)NC(=O)[C@H](CCCNC(=N)N)NC(=O)[C@H](CCCNC(=N)N)NC(=O)[C@H](CS)NC(=O)[C@H](CCCCN)NC(=O)[C@@H](N)Cc1ccccc1)C(=O)N[C@H](C(=O)N[C@@H](CS)C(=O)N[C@H](C(=O)N[C@@H](CCCNC(=N)N)C(=O)N[C@@H](CCCNC(=N)N)C(=O)N[C@@H](C)C(=O)N[C@@H](Cc1ccccc1)C(N)=O)C(C)C)[C@@H](C)O [LfcinB25, reference compound] | 60% | 60.5% | 64.4% | – | – | – | – | – | – | – | – | – | – | – | – | – | – | – |
| 500 µg/mL | N=C(N)NCCC[C@H](NC(=O)[C@H](Cc1c[nH]c2ccccc12)NC(=O)[C@H](CCC(N)=O)NC(=O)[C@H](Cc1c[nH]c2ccccc12)NC(=O)[C@H](CCCNC(=N)N)NC(=O)[C@@H](N)CCCNC(=N)N)C(=O)NCCCC[C@H](NC(=O)[C@H](CCCNC(=N)N)NC(=O)[C@H](Cc1c[nH]c2ccccc12)NC(=O)[C@H](CCC(N)=O)NC(=O)[C@H](Cc1c[nH]c2ccccc12)NC(=O)[C@H](CCCNC(=N)N)NC(=O)[C@@H](N)CCCNC(=N)N)C(=O)NCCCCCC(=O)N[C@@H](CSSC[C@H](NC(=O)CCCCCNC(=O)[C@H](CCCCNC(=O)[C@H](CCCNC(=N)N)NC(=O)[C@H](Cc1c[nH]c2ccccc12)NC(=O)[C@H](CCC(N)=O)NC(=O)[C@H](Cc1c[nH]c2ccccc12)NC(=O)[C@H](CCCNC(=N)N)NC(=O)[C@@H](N)CCCNC(=N)N)NC(=O)[C@H](CCCNC(=N)N)NC(=O)[C@H](Cc1c[nH]c2ccccc12)NC(=O)[C@H](CCC(N)=O)NC(=O)[C@H](Cc1c[nH]c2ccccc12)NC(=O)[C@H](CCCNC(=N)N)NC(=O)[C@@H](N)CCCNC(=N)N)C(N)=O)C(N)=O [LfcinB(20–25)4] (I: H-RRWQWRK[Ahx]C-NH2 / II: H-RRWQWRK[Ahx]C-NH2 / III: H-RRWQWR / IV: H-RRWQWR; amide I:7-III:C, II:7-IV:C; disulfide I:9-II:9; N-terminus and C-terminus assumed) | – | – | – | 13.6 ± 1.06 µM | 12.6 ± 1.06 µM | 9.05 ± 1.07 µM | 18.8 ± 1.11 µM | 17.4 ± 1.11 µM | reduced to the same extent as the one obtained after the first treatment | 16 ± 1.36 µM | 17.4 ± 1.77 µM | 9.02 ± 1.38 µM | not detected | not detected | – | – | – | – |
| – | RRWQWR-NH2 (C-terminus assumed) [LfcinB(20–25)] | – | – | – | > 101 µM | > 101 µM | > 101 µM | > 101 µM | > 101 µM | – | > 101 µM | > 101 µM | > 101 µM | – | – | > 101 µM | – | – | – |
| – | RWQWRWQWR-NH2 (C-terminus assumed) [LfcinB-Pal] | – | – | – | > 67.3 µM | > 67.3 µM | > 67.3 µM | 62.2 ± 1.56 µM | > 67.3 µM | – | 22.8 ± 1.12 µM | 22.6 ± 1.02 µM | 21.5 ± 1.05 µM | – | – | > 67.3 µM | only slightly | low | clearly improved the cytotoxic effect |
